Assay results published in patent publication US9006257B2, “Bicyclic compounds as mPGES-1 inhibitors” (Glenmark Pharmaceuticals S.A., priority 2012, dated 2015).

Target: T1, Recombinant human mPGES-1 (Homo sapiens, UniProt O14684)
T1 construct: made in house; host or cells: CHO cells
T1 sequence (O14684 1-152): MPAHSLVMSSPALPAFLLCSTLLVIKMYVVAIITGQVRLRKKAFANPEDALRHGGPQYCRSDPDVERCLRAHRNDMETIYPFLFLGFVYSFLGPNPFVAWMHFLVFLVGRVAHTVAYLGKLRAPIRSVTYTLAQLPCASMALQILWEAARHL
Assay: In-vitro mPGES-1 inhibitor screening (inhibition of PGE2 formation from PGH2, HTRF detection)
Type: biochemical
Details: for inhibition at 1 µM: 1 μM test compound, read-out: Percentage inhibition at 1 μM; for inhibition at 1 µM / inhibition at 10 µM: crude microsomal fraction, 15 μM PGH2; for inhibition at 10 µM: 10 μM test compound, read-out: Percentage inhibition at 10 μM; for IC50: class symbol, concentration response curve
Text: In-Vitro Protocol for Screening of mPGES-1 Inhibitors:
mPGES-1 (microsomal prostaglandin E synthase-1) is a microsomal enzyme that converts endoperoxide substrate PGH2 (prostaglandin H2) to product PGE2 (prostaglandin E2) by isomerization in the presence of reduced glutathione (GSH). mPGES-1 inhibitors were screened by assessing their ability to inhibit formation of PGE2 from PGH2 in presence of mPGES-1 using an anti-PGE2 antibody based detection method. Recombinant human mPGES-1 was generated in-house by expression in CHO cells (Ouellet M et al. (2002), Protein Expression and Purification 26: 489-495). The assay was set up using crude microsomal fractions at protein concentration of 40-60 μg/mL. Test compounds were prepared in 100% dimethyl sulfoxide (DMSO) to obtain 20 mM stock solution and then diluted using assay buffer comprising 0.1 M Potassium phosphate buffer with 2 mM EDTA. The final concentration of DMSO in reaction was 0.5% (v/v). Negative controls were comprised of all assay reagents except the enzyme. Positive controls were comprised of the enzyme reaction in the absence of any inhibitor. Test compounds were incubated for 10 minutes in assay buffer containing 2.5 mM GSH and mPGES-1 enzyme followed by addition of PGH2 at a concentration of 15 μM for 1 minute. The reaction was stopped by addition of Stannous chloride (11 mg/ml) and PGE2 levels were measured (Masse F et al. (2005), Journal of Biomolecular Screening 10(6) 599-605., Goedken R E et al. (2008), Journal of Biomolecular Screening 13(7): 619-625) by HTRF kit (CisBio)).
Inhibition of mPGES-1 enzyme activity was measured using the percent of reaction occurring in the positive control. Concentration response curves were plotted using percent inhibition of maximum enzyme reaction. The IC50 value was calculated from the concentration response curve by nonlinear regression analysis using GraphPad PRISM software.

SMILES | inhibition at 1 µM | inhibition at 10 µM | IC50
CC(C)C(=O)NCc1ccc(Cl)c(C(=O)Nc2cccc3c(NCC(F)(F)F)ncnc23)c1F [Example-73, 6-Chloro-2-fluoro-3-(isobutyramidomethyl)-N-(4-((2,2,2-trifluoroethyl)amino)quinazolin-8-yl)benzamide] | 88.7% | 93.2% | < 50 nM
CC(C)C(=O)NCc1cnc(C(F)F)c(C(=O)Nc2cccc3c(NCC(F)(F)F)ncnc23)c1 [Example-78, 2-(Difluoromethyl)-5-(isobutyramidomethyl)-N-(4-((2,2,2-trifluoroethyl)amino)quinazolin-8-yl)nicotinamide] | 83.3% | 94.8% | < 50 nM
CC(C)(C)C(=O)NCc1ccc(Cl)c(C(=O)Nc2cccc3c(NC4CCC(F)(F)CC4)ncnc23)c1F [Example-20, 6-Chloro-N-(4-((4,4-difluorocyclohexyl)amino)quinazolin-8-yl)-2-fluoro-3-(pivalamidomethyl)benzamide] | 98.8% | 99.4% | < 50 nM
CCOc1ncnc2c(NC(=O)c3c(Cl)ccc(CNC(=O)C(C)(C)C)c3F)cccc12 [Example-43, 6-Chloro-N-(4-ethoxyquinazolin-8-yl)-2-fluoro-3-(pivalamidomethyl)benzamide] | 98.4% | 99.9% | < 50 nM
CC(C)(C)C(=O)NCc1ccc(Cl)c(C(=O)Nc2cccc3c(Nc4ccc(C(F)(F)F)cc4)nccc23)c1 [Example-45, 2-Chloro-5-(pivalamidomethyl)-N-(1-((4-(trifluoromethyl)phenyl)amino)isoquinolin-5-yl)benzamide] | 99.6% | 98.3% | < 50 nM
CC(C)(C)C(=O)NCc1ccc(Cl)c(C(=O)Nc2cccc3c(Oc4cc(C(F)(F)F)ccc4F)nccc23)c1 [Example-41, 2-Chloro-N-(1-(2-fluoro-5-(trifluoromethyl)phenoxy)isoquinolin-5-yl)-5-(pivalamidomethyl)benzamide] | 99% | 97.6% | < 50 nM
Cc1nc(NC2CCC(F)(F)CC2)c2cccc(NC(=O)c3c(Cl)ccc(CNC(=O)C(C)(C)C)c3F)c2n1 [Example-60, 6-Chloro-N-(4-((4,4-difluorocyclohexyl)amino)-2-methylquinazolin-8-yl)-2-fluoro-3-(pivalamidomethyl)benzamide] | 86.5% | 91.7% | > 100 nM
CC(C)(C)C(=O)NCc1ccc(Cl)c(C(=O)Nc2cccc3c(Oc4ccc(F)c(C(F)(F)F)c4)ncnc23)c1F [Example-52, 6-Chloro-2-fluoro-N-(4-(4-fluoro-3-(trifluoromethyl)phenoxy)quinazolin-8-yl)-3-(pivalamidomethyl)benzamide] | 94.5% | 95.3% | < 50 nM
CC(C)(C)C(=O)NCc1ccc(Cl)c(C(=O)Nc2cccc3c(O[C@H]4CC[C@H](C(F)(F)F)CC4)nccc23)c1 [Example-38, 2-Chloro-5-(pivalamidomethyl)-N-(1-(((1r,4r)-4-(trifluoromethyl)cyclohexyl)oxy)isoquinolin-5-yl)benzamide] | 99.3% | 99.9% | < 50 nM
CC(C)(C)C(=O)NCc1ccc(Cl)c(C(=O)Nc2cccc3c(Nc4cccc(C(F)(F)F)c4)ncnc23)n1 [Example-8, 3-Chloro-6-(pivalamidomethyl)-N-(4-((3-(trifluoromethyl)phenyl)amino)quinazolin-8-yl)picolinamide] | 99% | 98% | < 50 nM
CC(C)(C)C(=O)NCc1ccc(Cl)c(C(=O)Nc2ccnc3c(Nc4cccc(C(F)(F)F)c4)cccc23)c1 [Example-19, 2-Chloro-5-(pivalamidomethyl)-N-(8-((3-(trifluoromethyl)phenyl)amino)quinolin-4-yl)benzamide] | 97.7% | 98.2% | < 50 nM
CC1(C)CCC(Oc2nccc3c(NC(=O)c4c(Cl)ccc(CNC(=O)C(C)(C)C)c4F)cccc23)CC1 [Example-35, 6-Chloro-N-(1-((4,4-dimethylcyclohexyl)oxy)isoquinolin-5-yl)-2-fluoro-3-(pivalamidomethyl)benzamide] | 100% | 100% | < 50 nM
CC(C)(C)C(=O)NCc1ccc(Cl)c(C(=O)Nc2cccc3c(Oc4ccc(C(F)(F)F)cc4)ccnc23)c1F [Example-53, 6-Chloro-2-fluoro-3-(pivalamidomethyl)-N-(4-(4-(trifluoromethyl)phenoxy)quinolin-8-yl)benzamide] | 98.3% | 98.3% | < 50 nM

Now from value to compound:

inhibition at 1 µM | inhibition at 10 µM | IC50 | SMILES
75.4% | 84% | > 100 nM | O=C(Nc1cccc2c(Nc3cc(C(F)(F)F)ccc3F)ncnc12)c1c(F)cccc1Cl [Example-34, 2-Chloro-6-fluoro-N-(4-((2-fluoro-5-(trifluoromethyl)phenyl)amino)quinazolin-8-yl)benzamide]
90.8% | 94.7% | < 50 nM | CCOc1ccnc2c(NC(=O)c3c(Cl)ccc(CNC(=O)C(C)(C)C)c3F)cccc12 [Example-63, 6-Chloro-N-(4-ethoxyquinolin-8-yl)-2-fluoro-3-(pivalamidomethyl)benzamide]
100% | 99.1% | < 50 nM | CC(C)(C)Nc1ncnc2c(NC(=O)c3c(Cl)ccc(CNC(=O)C(C)(C)CF)c3F)cccc12 [Example-79, N-(4-(tert-Butylamino)quinazolin-8-yl)-6-chloro-2-fluoro-3-((3-fluoro-2,2-dimethylpropanamido)methyl)benzamide]
98.2% | 97.3% | < 50 nM | Cc1nc(NC2CCC(C)(C)CC2)c2cccc(NC(=O)c3c(Cl)ccc(CNC(=O)C(C)(C)C)c3F)c2n1 [Example-54, 6-Chloro-N-(4-((4,4-dimethylcyclohexyl)amino)-2-methylquinazolin-8-yl)-2-fluoro-3-(pivalamidomethyl)benzamide]
99.7% | 98.5% | < 50 nM | CC(C)C(=O)NCc1cnc(C(F)F)c(C(=O)Nc2cccc3c(Oc4ccc(F)c(C(F)(F)F)c4)ccnc23)c1 [Example-80, 2-(Difluoromethyl)-N-(4-(4-fluoro-3-(trifluoromethyl)phenoxy)quinolin-8-yl)-5-(isobutyramidomethyl)nicotinamide]
83.5% | 93.4% | 50 to 100 nM | CC(C)Nc1ncnc2c(NC(=O)c3cc(CNC(=O)C(C)C)cnc3C(F)F)cccc12 [Example-76, 2-(Difluoromethyl)-5-(isobutyramidomethyl)-N-(4-(isopropylamino)quinazolin-8-yl)nicotinamide]
93.4% | 93.1% | < 50 nM | CC(C)(C)C(=O)NCc1ccc(Cl)c(C(=O)Nc2cccc3c(O[C@H]4CC[C@@H](C(F)(F)F)CC4)ncnc23)c1F [Example-26, 6-Chloro-2-fluoro-3-(pivalamidomethyl)-N-(4-(((1s,4s)-4-(trifluoromethyl)cyclohexyl)oxy)quinazolin-8-yl)benzamide]
95.2% | 96.7% | < 50 nM | CC(C)(C)C(=O)NCc1ccc(Cl)c(C(=O)Nc2cccc3c(Nc4cccc(C(F)(F)F)c4)nccc23)c1F [Example-1, 6-Chloro-2-fluoro-3-(pivalamidomethyl)-N-(1-((3-(trifluoromethyl)phenyl)amino)isoquinolin-5-yl)benzamide]
98.6% | 99.8% | < 50 nM | CC(C)(C)C(=O)NCc1ccc(Cl)c(C(=O)Nc2cccc3c(Nc4cccc(C(F)(F)F)c4)nccc23)c1 [Example-4, 2-Chloro-5-(pivalamidomethyl)-N-(1-((3-(trifluoromethyl)phenyl)amino)isoquinolin-5-yl)benzamide]
97.4% | 99.1% | < 50 nM | CC(C)(C)C(=O)NCc1ccc(Cl)c(C(=O)Nc2cccc3c(Nc4ccc(C(F)(F)F)nc4)ncnc23)c1F [Example-30, 6-Chloro-2-fluoro-3-(pivalamidomethyl)-N-(4-((6-(trifluoromethyl)pyridin-3-yl)amino)quinazolin-8-yl)benzamide]
